Data: publication PMC4153739 (Biochemistry, 2012)

Experiments:
[1] = target: NR1-2b/NR2B NMDA receptor (Rattus norvegicus, UniProt P35439+Q00960); format: cell-based
[2] = target: NR1-2b/NR2C NMDA receptor (Rattus norvegicus, UniProt P35439+Q00961); format: cell-based; conditions: 10 µM
[3] = target: NR1-2b/NR2D NMDA receptor (Rattus norvegicus, UniProt P35439+Q62645); format: cell-based; conditions: 10 µM
[4] = test system: NR1–2a-containing NMDA receptor subtypes; format: cell-based, rat; conditions: 10 µM
[5] = format: physicochemical; conditions: pH 7
[6] = test system: 6 Hz partial psychomotor seizure

Sequence of NR1-2b/NR2B NMDA receptor (Q00960 27-1482, other chains not shown): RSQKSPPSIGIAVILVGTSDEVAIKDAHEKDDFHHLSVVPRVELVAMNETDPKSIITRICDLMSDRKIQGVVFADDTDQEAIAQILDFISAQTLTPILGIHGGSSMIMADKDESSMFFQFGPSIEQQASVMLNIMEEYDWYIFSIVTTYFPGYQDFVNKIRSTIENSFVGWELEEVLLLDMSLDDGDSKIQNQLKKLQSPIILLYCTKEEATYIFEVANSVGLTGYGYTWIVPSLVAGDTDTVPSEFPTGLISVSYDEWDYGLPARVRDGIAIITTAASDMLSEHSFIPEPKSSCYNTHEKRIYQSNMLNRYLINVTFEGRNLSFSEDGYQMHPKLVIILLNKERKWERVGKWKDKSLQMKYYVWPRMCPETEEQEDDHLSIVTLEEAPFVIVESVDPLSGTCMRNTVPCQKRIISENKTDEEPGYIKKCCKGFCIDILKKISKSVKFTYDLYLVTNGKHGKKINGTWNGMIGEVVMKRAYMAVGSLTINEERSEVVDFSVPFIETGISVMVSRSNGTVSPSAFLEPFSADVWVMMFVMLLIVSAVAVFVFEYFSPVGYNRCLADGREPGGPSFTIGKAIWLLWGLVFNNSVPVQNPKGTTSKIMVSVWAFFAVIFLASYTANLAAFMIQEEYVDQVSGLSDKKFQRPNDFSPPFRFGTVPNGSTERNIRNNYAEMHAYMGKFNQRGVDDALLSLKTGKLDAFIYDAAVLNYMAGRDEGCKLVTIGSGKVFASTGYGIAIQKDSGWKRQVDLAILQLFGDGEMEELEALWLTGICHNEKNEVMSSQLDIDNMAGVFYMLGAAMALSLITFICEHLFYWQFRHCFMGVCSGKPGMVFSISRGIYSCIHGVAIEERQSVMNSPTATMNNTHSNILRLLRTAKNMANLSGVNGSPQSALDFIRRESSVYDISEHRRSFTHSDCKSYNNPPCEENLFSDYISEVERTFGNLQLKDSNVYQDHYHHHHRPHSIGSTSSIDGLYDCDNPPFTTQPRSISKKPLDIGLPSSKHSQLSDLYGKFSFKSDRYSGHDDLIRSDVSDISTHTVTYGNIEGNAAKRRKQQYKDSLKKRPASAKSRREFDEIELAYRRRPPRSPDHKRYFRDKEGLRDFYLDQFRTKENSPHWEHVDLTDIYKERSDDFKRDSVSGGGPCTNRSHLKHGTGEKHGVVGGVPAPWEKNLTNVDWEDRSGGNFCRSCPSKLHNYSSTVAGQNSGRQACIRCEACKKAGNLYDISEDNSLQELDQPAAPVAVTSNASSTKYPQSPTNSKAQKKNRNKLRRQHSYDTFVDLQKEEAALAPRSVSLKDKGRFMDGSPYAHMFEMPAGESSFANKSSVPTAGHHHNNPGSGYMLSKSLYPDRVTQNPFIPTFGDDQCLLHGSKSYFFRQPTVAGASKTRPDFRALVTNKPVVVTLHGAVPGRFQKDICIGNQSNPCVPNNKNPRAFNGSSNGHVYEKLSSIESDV
Sequence of NR1-2b/NR2D NMDA receptor (Q62645 28-1323, other chains not shown): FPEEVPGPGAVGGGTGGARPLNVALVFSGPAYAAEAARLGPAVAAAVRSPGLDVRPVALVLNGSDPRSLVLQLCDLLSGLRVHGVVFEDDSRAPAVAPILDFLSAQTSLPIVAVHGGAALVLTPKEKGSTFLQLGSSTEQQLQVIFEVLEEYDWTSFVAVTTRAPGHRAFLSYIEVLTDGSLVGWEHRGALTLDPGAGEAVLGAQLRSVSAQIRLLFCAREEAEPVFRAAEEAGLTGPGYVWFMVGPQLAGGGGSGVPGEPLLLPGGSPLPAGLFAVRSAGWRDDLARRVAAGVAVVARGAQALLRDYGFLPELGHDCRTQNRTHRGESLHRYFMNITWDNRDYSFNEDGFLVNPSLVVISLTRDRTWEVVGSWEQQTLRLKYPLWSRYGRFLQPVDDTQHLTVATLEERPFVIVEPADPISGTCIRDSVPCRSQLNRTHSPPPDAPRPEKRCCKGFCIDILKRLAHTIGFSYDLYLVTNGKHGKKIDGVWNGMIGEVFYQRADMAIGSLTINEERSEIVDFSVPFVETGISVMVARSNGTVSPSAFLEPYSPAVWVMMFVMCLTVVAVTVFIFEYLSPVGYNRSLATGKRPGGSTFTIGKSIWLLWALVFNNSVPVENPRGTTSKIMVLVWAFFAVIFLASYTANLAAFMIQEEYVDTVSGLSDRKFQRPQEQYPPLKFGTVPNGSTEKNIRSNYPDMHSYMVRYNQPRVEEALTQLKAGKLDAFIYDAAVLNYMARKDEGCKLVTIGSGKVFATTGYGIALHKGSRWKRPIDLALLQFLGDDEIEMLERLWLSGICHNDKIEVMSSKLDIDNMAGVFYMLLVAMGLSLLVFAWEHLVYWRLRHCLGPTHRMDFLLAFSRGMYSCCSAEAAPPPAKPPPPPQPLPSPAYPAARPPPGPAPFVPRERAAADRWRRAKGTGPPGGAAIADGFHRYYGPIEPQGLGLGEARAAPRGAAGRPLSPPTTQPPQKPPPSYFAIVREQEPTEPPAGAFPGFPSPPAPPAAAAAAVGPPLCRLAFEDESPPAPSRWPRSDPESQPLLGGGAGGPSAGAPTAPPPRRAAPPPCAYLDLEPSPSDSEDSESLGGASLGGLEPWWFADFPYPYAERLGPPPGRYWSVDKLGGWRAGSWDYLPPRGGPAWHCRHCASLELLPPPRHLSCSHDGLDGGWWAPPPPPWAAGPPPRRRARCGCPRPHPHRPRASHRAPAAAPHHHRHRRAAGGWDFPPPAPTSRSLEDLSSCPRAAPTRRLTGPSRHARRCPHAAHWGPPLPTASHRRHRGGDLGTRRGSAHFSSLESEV
Sequence of NR1-2b/NR2C NMDA receptor (Q00961 20-1237, other chains not shown): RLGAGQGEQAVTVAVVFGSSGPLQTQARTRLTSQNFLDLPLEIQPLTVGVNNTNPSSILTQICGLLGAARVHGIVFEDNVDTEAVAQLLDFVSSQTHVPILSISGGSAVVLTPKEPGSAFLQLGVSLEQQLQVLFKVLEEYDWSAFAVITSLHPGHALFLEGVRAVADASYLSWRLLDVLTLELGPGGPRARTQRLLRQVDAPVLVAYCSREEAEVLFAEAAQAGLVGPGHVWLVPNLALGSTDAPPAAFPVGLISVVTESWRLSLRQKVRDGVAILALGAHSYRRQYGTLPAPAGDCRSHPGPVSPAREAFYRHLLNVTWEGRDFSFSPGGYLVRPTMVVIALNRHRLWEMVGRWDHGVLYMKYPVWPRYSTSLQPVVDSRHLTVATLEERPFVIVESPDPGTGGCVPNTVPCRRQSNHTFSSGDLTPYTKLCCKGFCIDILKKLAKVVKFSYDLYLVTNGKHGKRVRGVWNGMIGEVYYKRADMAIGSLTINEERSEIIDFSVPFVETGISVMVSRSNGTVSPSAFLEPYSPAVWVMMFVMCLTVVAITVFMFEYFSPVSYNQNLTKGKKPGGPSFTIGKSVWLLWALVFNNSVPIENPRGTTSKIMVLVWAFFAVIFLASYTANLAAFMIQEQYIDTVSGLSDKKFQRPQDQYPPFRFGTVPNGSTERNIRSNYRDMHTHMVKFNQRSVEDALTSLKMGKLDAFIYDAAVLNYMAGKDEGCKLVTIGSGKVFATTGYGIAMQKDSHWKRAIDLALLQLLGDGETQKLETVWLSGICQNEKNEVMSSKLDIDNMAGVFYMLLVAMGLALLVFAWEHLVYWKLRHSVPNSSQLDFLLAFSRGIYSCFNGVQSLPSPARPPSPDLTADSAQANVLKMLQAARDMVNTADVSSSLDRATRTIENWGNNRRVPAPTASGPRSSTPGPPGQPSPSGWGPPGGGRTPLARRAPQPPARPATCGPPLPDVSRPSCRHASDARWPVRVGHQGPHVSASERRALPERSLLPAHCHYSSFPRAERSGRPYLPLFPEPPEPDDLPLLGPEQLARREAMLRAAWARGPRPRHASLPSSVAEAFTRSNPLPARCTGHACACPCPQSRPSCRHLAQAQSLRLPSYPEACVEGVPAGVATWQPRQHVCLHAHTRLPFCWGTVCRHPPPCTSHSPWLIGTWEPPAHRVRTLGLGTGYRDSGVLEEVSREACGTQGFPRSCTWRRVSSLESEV

CC(C)C[C@H](NC(=O)[C@H](CC(C(=O)O)C(=O)O)NC(=O)[C@H](CCCNC(=N)N)NC(=O)[C@H](C)NC(=O)[C@H](Cc1ccccc1)NC(=O)[C@H](CC(C(=O)O)C(=O)O)NC(=O)[C@@H]1C[C@@H](O)CN1C(=O)[C@H](C)NC(=O)[C@H](CCCCN)NC(=O)[C@H](CC(C(=O)O)C(=O)O)NC(=O)[C@H](C)NC(=O)[C@H](CC(C)C)NC(=O)[C@H](CC(C(=O)O)C(=O)O)NC(=O)[C@H](CC(C(=O)O)C(=O)O)NC(=O)[C@H](CCC(=O)O)NC(=O)CN)C(=O)N[C@@H](C)C(=O)N[C@@H](CC(N)=O)C(N)=O [ConRl-B]
discrimination between NR2B and all other NR2 subunits [1]: at least 100 fold
antagonist activity at the highest concentration tested, NR2C [2]: little or no antagonist activity
antagonist activity at the highest concentration tested, NR2D [3]: little or no antagonist activity
potency on NR1-2a-containing subtypes [4]: little or no potency
estimated helical content in the presence of calcium [5]: 59%
estimated percentage of helicity in the absence of calcium [5]: 10%
percent of helical transition induced by calcium [5]: 49%
rectal body temperature versus saline control group ([6]; mouse, in vivo): did not differ between groups
mice protected from seizures ([6]; n=8): 50%
